The subject of one experiment is Pyrenophora teres. The experiment in a line: In vivo preventive test on Pyrenophora teres (barley). As to conditions: 500 ppm of active ingredient; barley plants; 14 days after contamination. A digest of the protocol:
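Barley ("Plaisant") grown at 22° C was sprayed at the 1-leaf stage (10 cm) with active ingredient in acetone/tween/DMSO/water, with solvent-only controls. After 24 h, leaves were inoculated with Pyrenophora teres spores (12 000 spores per mL) from 12-day cultures. % efficacy versus controls graded 14 days post-contamination.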

The subject of the next experiment is Botrytis cinerea. The experiment in a line: In vivo preventive test on Botrytis cinerea (grey mould). As to conditions: 500 ppm of active ingredient; gherkin plants; 4 to 5 days after contamination. Put shortly:
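Gherkin plants at cotyledon stage Z11 were sprayed with compound, then inoculated 24 h later with Botrytis cinerea spores (50 000 spores per mL in nutrient solution). Plants were kept at 17° C and 90% RH, and percent efficacy versus solvent-treated controls was graded 4 to 5 days after contamination.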

The next experiment deals with Leptosphaeria nodorum. As to the kind of experiment: In vivo preventive test on Leptosphaeria nodorum (wheat). As to conditions: 500 ppm of active ingredient, evaluated 8 days after inoculation. Here is the method: In Vivo Preventive Test on Leptosphaeria nodorum Test (Wheat) [table] To produce a suitable preparation of active compound, 1 part by weight of active compound or active compound combination is mixed with the stated amounts of solvent and emulsifier, and the concentrate is diluted with water to the desired concentration. To test for preventive activity, young plants are sprayed with the preparation of active compound or active compound combination at the stated rate of application. After the spray coating has been dried, the plants are sprayed with a spore suspension of Leptosphaeria nodorum. The plants remain for 48 hours in an incubation cabinet at approximately 20° C. and a relative atmospheric humidity of approximately 100%.

This note sets out measurements from patent publication US10125126B2, “N-cycloalkyl-N-[(heterocyclylphenyl)methylene]-(thio)carboxamide derivatives” (BAYER CROPSCIENCE AG, priority 2012, dated 2018).

Turning to `CC(C)c1ccc(-c2csc3ccccc23)cc1CN(C(=O)c1c(C(F)F)nn(C)c1F)C1CC1` [I.157, N-[5-(1-benzothiophen-3-yl)-2-isopropylbenzyl]-N-cyclopropyl-3-(difluoromethyl)-5-fluoro-1-methyl-1H-pyrazole-4-carboxamide], the Efficacy with Pyrenophora teres worked out at 93%; with Botrytis cinerea it was 100%; in the experiment with Leptosphaeria nodorum, 100%.
